Data from US4956389A, “Compounds having calcium blocking activity” (priority 1982, dated 1990).
Values joined by “and” are separate entries in the source; they are usually repeats but may differ in a detail not shown here. Identical values can stand only once. Like-named read-outs stand apart in the source and are kept apart here.

Columns and labels:
aorta of rabbits = assay: Antagonistic activity on the contractions produced by arachidonic acid on the aorta of rabbits, study in vitro; parameters: species or system rabbit; details: for inhibition at 1 mg/kg: dose 1.0 mg·Kg^-1
Method: The study has been carried out by comparison with Nicardipine using autologous blood as the perfusion liquid. The addition of 0.1 mg of arachidonate to the liquid induces an isometric contraction of the aorta which is registered by a transducer. […] This phenomenon is shown by the relaxation which follows the addition of arachidonate to the perfusion blood. This effect may be noted with 0.1 mg/kg of YS 035 and 1 mg/kg of Nicardipine.

portions of the aorta = assay: Contraction of aorta portions by arachidonic acid after oral administration to rabbits (studies in vivo); parameters: species or system rabbit
Method: Both substances YS 035 and Nicardipine have been administered orally for a period of three consecutive days to rabbits in such a manner that the last administration of each substance was carried out one hour prior to killing the animals. The portions of the aorta had then been incubated either in PRP as well as in the Krebs-Henseleit liquid.

rats = assay: Antagonistic effect to biochemical disturbances during the post-oligemic period in rats; assay type: in vivo, rat
Method: Oligemia in rats is caused by simultaneous bilateral occlusion of the carotid arteries associated with a slight decrease (8-9 kPa) of blood pressure and is maintained for 60 minutes. After removal of the occlusion, the post-oligemic period is followed for several days. In this case, the observation is continued up to the third day, at the time during which the brain accumulation of Ca^++ ions reaches the maximum.
The substances YS 035 or Nicardipine respectively, are administered to rats, 1, 5, 18, 24, 42 and 71 hours after having removed the carotid occlusion. The rats are sacrificed after 72 hours and the tissues are rapidly removed in order to determine their content of water, calcium and potassium.

[1] = tested on: kidney cells in newborn hamsters; assay: Inhibition of Ca2+-uptake in kidney cells in newborn hamsters; assay type: cell-based, hamster
Method: Cells of kidneys of newborn hamsters have been washed and then resuspended several times in concentration of 5·10^6 /cc in the medium of the following composition:
After 15 minutes of preincubation at 30° C., the reaction was made to begin by addition to the medium of ^45 CaCl2 1 mM (0.1μCi/cc). The concentrations at 0 period of time were the concentrations determined two minutes after the addition. The other controls were carried out after 5 minutes, 10 minutes, and 20 minutes. The determination of [Ca^2+ ] was carried out as in the preceding experiment.

[2] = tested on: mitochondria of liver of rats; assay: Inhibition of Ca2+-uptake in mitochondria of liver of rats; assay type: biochemical, rat; details: 250 μM; 20° C.; control 14.3
Method: The mitochondria prepared according to classical methods are diluted to a concentration of 1.5 mg/cc in a medium of incubation which has the following composition:
After a period of 15 minutes of preincubation at 20° C. there was added ^45 CaCl2 (50 n mol/mg prot.).
In a manner analogous to the preceding experiments, the concentrations determined after two minutes were called the concentration at 0 period of time. The other controls were determined after 5 minutes, after 10 minutes and after 15 minutes. For the determination of Ca^2+, the experiment was carried out in a manner analogous to the preceding experiments.
The results are reported in Table 3 as the quantity of Ca transferred per mg of protein

[3] = tested on: synaptosomes of the brain of rats; assay: Inhibition of the Ca2+-uptake in synaptosomes of the brain of rats; assay type: biochemical, rat; details: 250 μM
Method: The synaptosomes have been prepared from an homogenate of the brain of rats by centrifugation in the gradient of Filcoll at 23,500 rpm for a period of 30 minutes and diluted to 1.5 mg/cc in the medium constituted by:
After 15 minutes of preincubation, ^45 CaCl2, final concentration 1 mM (0.2μCi/cc is added to the medium).
The first determination has been carried out two minutes after the addition. […] After each period, the reaction has been stopped by centrifugation and the radioactivity has been determined in the supernatant as well as in the pellet. The latter had been denatured previously with PCA, neutralized and subsequently centrifuged.

phosphodiesterase = assay: Inhibition of the phosphodiesterase activity (method of K. G. Nair); assay type: biochemical; details: read-out: ID50 (inhibiting dose 50%); up to 10 mM
Method: The inhibition of phosphodiesterase activity of YS 035 and of papaverine has been assessed according to the method of K. G. Nair (Biochemistry, 5, 150, 1966).
It has been used a medium containing:
2.5 ml of buffer tris-HCl 0.1M pH 7.4;
50 μl CAMP "Sigma" (1 mg/ml);
5 μl Adenosin deaminase (2 mg/ml);
20 μl of alkaline phosphatase "Sigma" (2.6 mg/ml);
15 μl of phosphodiesterase (10 mg/ml).
YS 035 has been added up to a final concentration of 100 mM and Papaverine to a concentration of 10 mM.

calcium ion flows = details: cited from earlier work
[4] = tested on: isolated guinea-pig atria; details: papaverine with verapamil; cited from earlier work
phosphodiesterases = details: cited from earlier work

COC(=O)C1=C(C)NC(C)=C(C(=O)OCCN(C)Cc2ccccc2)C1c1cccc([N+](=O)[O-])c1 (centres unmarked) [Nicardipine, reference compound]
Contraction of the first portion of the aorta (aorta of rabbits; N = 4): 38 ± 4.9 mm | inhibition at 0.01 mg/kg (aorta of rabbits; Oryctolagus cuniculus, dose 0.01 mg·Kg^-1, read-out: Contraction of the second and third portion of the aorta, % Variation): 6% | inhibition at 0.1 mg/kg (aorta of rabbits; Oryctolagus cuniculus, dose 0.1 mg·Kg^-1, read-out: Contraction of the second and third portion of the aorta, % Variation): 48 ± 15.5% | inhibition at 1 mg/kg (aorta of rabbits; Oryctolagus cuniculus, read-out: Contraction of the second and third portion of the aorta, % Variation): 162% | inhibition at 1 mg/kg (aorta of rabbits; Oryctolagus cuniculus, second and third portion, read-out: % Variation, small contractions observed occasionally prior to relaxation (value in brackets)): 84% | minimal effective dose (aorta of rabbits; Oryctolagus cuniculus, autologous blood perfusion, 0.1 mg arachidonate, read-out: dose at which relaxation following the addition of arachidonate is noted): 1 mg/kg | inhibitory effect on the contraction produced by the arachidonate (in words) (aorta of rabbits; YS 035 compared with Nicardipine): comparable | Amplitude of contraction, medium Krebs, individual values (portions of the aorta; 1 mg·Kg^-1 P.O., Krebs, controls 12 ± 2.3): -30 mm and -10 mm | Amplitude of contraction, PRP, individual values (portions of the aorta; 1 mg·Kg^-1 P.O., PRP, controls 30 ± 8.0): +24 mm and +55 mm | site of action (in words) (portions of the aorta; aortic endothelial level, particularly PGI2): act directly on the synthesis of prostaglandin | Cerebral concentration, Ca++ (rats; 3 mg·Kg^-1 P.O. 7×, 72 h, post-oligemic controls 28.2 ± 3.22): 19.3 ± 4.92 mmol·Kg^-1 of dry substance | Cerebral concentration, H2O (rats; 3 mg·Kg^-1 P.O. 7×, 72 h, post-oligemic controls 80.1 ± 0.37): 79.2 ± 0.42% | Cerebral concentration, K+ (rats; 3 mg·Kg^-1 P.O. 7×, 72 h, post-oligemic controls 366.2 ± 12.58): 368.5 ± 19.69 mmol·Kg^-1 of dry substance | intracellular accumulation of Ca++ ions (in words) (rats; rat, in vivo): much less significant

COC(=O)C1=C(C)NC(C)=C(C(=O)OC)C1c1ccccc1[N+](=O)[O-] [Nifedipine, reference compound]
Ca2+-uptake ([1]; 250 μM, 30° C., control 11.9): 7.9 n g ions/mg prot/15' | percent change in Ca2+-uptake versus control at 250 µM ([1]; Mesocricetus auratus, 0.25 h, 15 min): -33.6% | Ca2+-uptake [2]: 9.5 n g ions/mg prot.

COc1ccc(Cc2nccc3cc(OC)c(OC)cc23)cc1OC [Papaverine]
inhibitory activity on the calcium uptake (in words) [3]: completely devoid of calcium antagonistic activity | Ca2+-uptake ([3]; 45CaCl2 1 mM, control 80 ± 7): 79 ± 5 n g ions/mg prot/15 min | IC50 (phosphodiesterase): 40 µM | effect on calcium ion flows (in words) (calcium ion flows; at the lower concentrations): stimulation of calcium ion flows | concentration of antagonism on the calcium ion (calcium ion flows): about 10^-4 M | calcium antagonistic activity (in words) (calcium ion flows; conclusion from literature): totally devoid of calcium antagonistic activity | interaction on the slow entry flows sustained by calcium ions (in words) [4]: mutually antagonistic | main biochemical action (in words) (phosphodiesterases): inhibition of phosphodiesterases

COc1ccc(CCN(C)CCCC(C#N)(c2ccc(OC)c(OC)c2)C(C)C)cc1OC (centres unmarked) [verapamil]
interaction on the slow entry flows sustained by calcium ions (in words) [4]: mutually antagonistic
